Data: US20190375708A1 (VenatoRx Pharmaceuticals, Inc., priority 2018, published 2019)

Experiments:
[1] = tested on: HBV replication in HepAD38 cells; assay: Anti-HBV replication assay in HepAD38 cells (QPCR of extracellular HBV DNA); type: cell-based, HBV (genotype D, serotype ayw); settings: Hepatitis B virus, 168 h, 7 days incubation, extracellular HBV DNA by QPCR, read-out: Anti-HBV EC50
In short: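 Read-out is QPCR of HBV DNA released into culture supernatant, converted to percent of vehicle control and fitted to give EC50. Cells were HepAD38 induced by tetracycline removal and dosed […] for 7 days.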

[2] = In vitro cytotoxicity assay (MTT cell viability) in HepG2 cells; type: cell-based, human; settings: human
In short: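 Parental HepG2 cells in EMEM + 10% FBS were exposed to compounds (8 half-log dilutions, 30 μM to 1.0 nM) for 7 days at 37 °C, 5% CO2. MTT was then added for 3-4 h, formazan dissolved in DMSO and absorbance read at 492 nm; CC50 came from 4-parameter fits against vehicle controls.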

SMILES | EC50 [1] [nM] | CC50 at 7 days [2] [nM]
Cc1cc(NC(=O)c2c(C)c(C(=O)C(=O)N[C@H]3CCC[C@H]3O)n3c2CCCC3)ccc1F [Example 440, N-(4-fluoro-3-methylphenyl)-3-(2-(((1S,2R)-2-hydroxycyclopentyl)amino)-2-oxoacetyl)-2-methyl-5,6,7,8-tetrahydroindolizine-1-carboxamide] | 50 to 499 | 5000 to 30000
Cc1cc(NC(=O)c2c(C)c(C(=O)C(=O)N[C@H]3CC[C@@H](O)CC3)n(C)c2C)ccc1F [Example 137, N-(4-fluoro-3-methylphenyl)-5-(2-(((1s,4s)-4-hydroxycyclohexyl)amino)-2-oxoacetyl)-1,2,4-trimethyl-1H-pyrrole-3-carboxamide] | < 50 | > 30000
CC(C)(CO)NC(=O)C(=O)c1cc(C(=O)Nc2ccc(F)c(C(F)F)c2)c2n1CCCC2 [Example 429, N-(3-(difluoromethyl)-4-fluorophenyl)-3-(2-((1-hydroxy-2-methylpropan-2-yl)amino)-2-oxoacetyl)-5,6,7,8-tetrahydroindolizine-1-carboxamide] | 50 to 499 | > 30000
Cc1c(C(=O)Nc2ccc(F)nc2)c(C)n(C)c1C(=O)C(=O)NC(C)C(F)(F)F (stereo not shown) [Example 119, N-(6-fluoropyridin-3-yl)-1,2,4-trimethyl-5-(2-oxo-2-((1,1,1-trifluoropropan-2-yl)amino)acetyl)-1H-pyrrole-3-carboxamide] | < 50 | > 30000
Cc1c(C(=O)Nc2ccc(F)c(F)c2)c2n(c1C(=O)C(=O)N[C@H]1COC[C@@H]1O)CCCC2 [Example 457, N-(3,4-difluorophenyl)-3-(2-(((3S,4R)-4-hydroxytetrahydrofuran-3-yl)amino)-2-oxoacetyl)-2-methyl-5,6,7,8-tettrahydroindolizine-1-carboxamide] | 50 to 499 | > 30000
Cc1c(C(=O)Nc2ccnc(Cl)c2)c(C)n(C)c1C(=O)C(=O)N[C@H](C)C(F)(F)F [Example 208, (R)-N-(2-chloropyridin-4-yl)-1,2,4-trimethyl-5-(2-oxo-2-((1,1,1-trifluoropropan-2-yl)amino)acetyl)-1H-pyrrole-3-carboxamide] | < 50 | > 30000
COc1c(C(=O)Nc2ccc(F)c(F)c2)c(C)n(C)c1C(=O)C(=O)NC1(C)CC(F)(F)C1 [Example 379, 5-(2-((3,3-difluoro-1-methylcyclobutyl)amino)-2-oxoacetyl)-N-(3,4-difluorophenyl)-4-methoxy-1,2-dimethyl-1H-pyrrole-3-carboxamide] | 50 to 499 | > 30000
Cc1cc(NC(=O)c2c(C)c(C(=O)C(=O)NC3(C(F)(F)F)CCOCC3)n(C)c2C)cnc1F [Example 163, N-(6-fluoro-5-methylpyridin-3-yl)-1,2,4-trimethyl-5-(2-oxo-2-((4-(trifluoromethyl)tetrahydro-2H-pyran-4-yl)amino)acetyl)-1H-pyrrole-3-carboxamide] | > 1000 | > 30000
Cc1cc(NC(=O)c2c(C)c(C(=O)C(=O)Nc3ccc(B(O)O)cc3)n(C)c2C)ccc1F [Example 255, (4-(2-(4-((4-fluoro-3-methylphenyl)carbamoyl)-1,3,5-trimethyl-1H-pyrrol-2-yl)-2-oxoacetamido)phenyl)boronic acid] | < 50 | 5000 to 30000
Cc1cc(NC(=O)c2c(C)c(C(=O)C(=O)N[C@H](CO)[C@@H](C)O)n(CCF)c2C)ccc1F [Example 177, 5-(2-(((2R,3R)-1,3-dihydroxybutan-2-yl)amino)-2-oxoacetyl)-N-(4-fluoro-3-methylphenyl)-1-(2-fluoroethyl)-2,4-dimethyl-1H-pyrrole-3-carboxamide] | 50 to 499 | 5000 to 30000
Cc1cc(NC(=O)c2c(C)c(C(=O)C(=O)N[C@@H]3C[C@H](O)[C@@H](O)[C@H]3O)n(C)c2C)ccc1F [Example 712, N-(4-fluoro-3-methylphenyl)-1,2,4-trimethyl-5-(2-oxo-2-(((1R,2S,3R,4S)-2,3,4-trihydroxycyclopentyl)amino)acetyl)-1H-pyrrole-3-carboxamide] | < 50 | > 30000
Cc1cc(NC(=O)c2c(C)c(C(=O)C(=O)NCCc3c(C)[nH][nH]c3=O)n(C)c2C)ccc1F [Example 650, N-(4-fluoro-3-methylphenyl)-1,2,4-trimethyl-5-(2-((2-(5-methyl-3-oxo-2,3-dihdyro-1H-pyrazol-4-yl)ethyl)amino)-2-oxoacetyl)-1H-pyrrole-3-carboxamide] | 50 to 499 | > 30000
Cc1cc(NC(=O)c2c(C)c(C(=O)C(=O)NC3(C(F)(F)F)CC(O)C3)n(C)c2C)ccc1F (stereo not shown) [Example 288, N-(4-fluoro-3-methylphenyl)-5-(2-((3-hydroxy-1-(trifluoromethyl)cyclobutyl)amino)-2-oxoacetyl)-1,2,4-trimethyl-1H-pyrrole-3-carboxamide] | < 50 | > 30000
CC(C)(C)NC(=O)C(=O)c1cc(C(=O)Nc2cc(F)c(F)c(F)c2)c2n1CCCC2 [Example 396, 3-(2-(tert-butylamino)-2-oxoacetyl)-N-(3,4,5-trifluorophenyl)-5,6,7,8-tetrahydroindolizine-1-carboxamide] | 50 to 499 | 5000 to 30000
Cc1cc(NC(=O)c2cc(C(=O)C(=O)NC3(C(F)(F)F)CC3)n3c2CCCC3)ccc1F [Example 402, N-(4-fluoro-3-methylphenyl)-3-(2-oxo-2-((1-(trifluoromethyl)cyclopropyl)amino)acetyl)-5,6,7,8-tetrahydroindolizine-1-carboxamide] | 50 to 499 | > 30000
Cc1cc(NC(=O)c2c(C)c(C(=O)C(=O)N[C@@H]3CCCC[C@H]3O)n(C)c2C)cnc1F [Example 162, N-(6-fluoro-5-methylpyridin-3-yl)-5-(2-(((1R,2R)-2-hydroxycyclohexyl)amino)-2-oxoacetyl)-1,2,4-trimethyl-1H-pyrrole-3-carboxamide] | 50 to 499 | > 30000
Cc1cc(NC(=O)c2c(C)c(C(=O)C(=O)NCc3csc(N)n3)n(CCF)c2C)ccc1F [Example 229, 5-(2-(((2-aminothiazol-4-yl)methyl)amino)-2-oxoacetyl)-N-(4-fluoro-3-methylphenyl)-1-(2-fluoroethyl)-2,4-dimethyl-1H-pyrrole-3-carboxamide] | < 50 | > 30000
Cc1c(C(=O)Nc2ccc(F)c(F)c2)c(C)n(C)c1C(=O)C(=O)NC1(CO)CCCCC1 [Example 616, N-(3,4-difluorophenyl)-5-(2-((1-(hydroxymethyl)cyclohexyl)amino)-2-oxoacetyl)-1,2,4-trimethyl-1H-pyrrole-3-carboxamide] | < 50 | > 30000
Cc1cc(NC(=O)c2c(C)c(C(=O)C(=O)N[C@H]3CCN(S(C)(=O)=O)C3)n(C)c2C)ccc1F [Example 667, (S)-N-(4-fluoro-3-methylphenyl)-1,2,4-trimethyl-5-(2-((1-(methylsulfonyl)pyrrolidin-3-yl)amino)-2-oxoacetyl)-1H-pyrrole-3-carboxamide] | < 50 | 500 to 4990
CC(=O)N1CCC[C@@H](NC(=O)C(=O)c2c(C)c(C(=O)Nc3ccc(F)c(C)c3)c(C)n2C)C1 [Example 639, (R)-5-(2-((1-acetylpiperidin-3-yl)amino)-2-oxoacetyl)-N-(4-fluoro-3-methylphenyl)-1,2,4-trimethyl-1H-pyrrole-3-carboxamide] | < 50 | > 30000
